Patent US10206907B2, “Compounds useful for the treatment of degenerative and inflammatory diseases” (GALAPAGOS NV, priority 2008, dated 2019)
Where two headings read alike, the source gives them in different places.

Columns and labels:
[1] = target: Recombinant human JAK1 catalytic domain (Homo sapiens (Human), UniProt P23458); experiment: JAK1 inhibition assay; type: biochemical
Method in brief: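 IC50 values come from dose-response series, with each point expressed as percent inhibition of cpm. Vehicle sets full activity and 10 μM staurosporine sets background. Incorporated radioactivity counted by scintillation after washing with 75 mM phosphoric acid.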

[2] = target: Recombinant human JAK2 catalytic domain (Homo sapiens (Human), UniProt O60674); experiment: JAK2 inhibition assay; type: biochemical; settings: semi-quantitative score
Method in brief: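 Activity was taken as vehicle cpm minus cpm with 10 μM staurosporine, and inhibition was expressed on that scale. Incubation was 90 min at 30 °C, followed by acid quench, phosphoric acid washes and Microscint counting. Compounds were tested as dose series to obtain IC50.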

[3] = target: Recombinant human JAK3 catalytic domain (Homo sapiens (Human), UniProt P52333); experiment: JAK3 inhibition assay; type: biochemical; settings: semi-quantitative score
Procedure: Plates were washed 6 times with 300 μL per well of a 75 mM phosphoric acid solution and the bottom of the plates was sealed. 40 μL/well of Microscint-20 was added, the top of the plates was sealed and readout was performed using the Topcount (Perkin Elmer). Kinase activity was calculated by subtracting counts per minute (cpm) obtained in the presence of a positive control inhibitor (10 μM staurosporine) from cpm obtained in the presence of vehicle. The ability of a test compound to inhibit this activity was determined as: Percentage inhibition=((cpm determined for sample with test compound present−cpm determined for sample with positive control inhibitor) divided by (cpm determined in the presence of vehicle−cpm determined for sample with positive control inhibitor))*100%.
Dose dilution series were prepared for the compounds enabling the testing of dose-response effects in the JAK3 assay and the calculation of the IC50 for each compound.

[4] = test system: JAK-STAT signalling in HeLa cells; experiment: JAK-STAT signalling assay (OSM-triggered pSTAT1(2)-luciferase reporter in HeLa cells); type: cell-based; settings: Homo sapiens; HeLa cells, OSM-triggered pSTAT1(2)-luciferase reporter; read-out: STAT signalling EC50
Method in brief: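 Read-out is oncostatin M–driven pSTAT1(2)-luciferase activity, corrected by co-transfected LacZ β-galactosidase, in transiently transfected HeLa cells cultured overnight at 37 °C, 10% CO2. Inhibition percentages against positive and negative controls were plotted across doses to derive EC50.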

MMP13 in SW1353 cells = experiment: OSM/IL-1β signaling assay (MMP13 levels in SW1353 cells); type: cell-based; settings: Homo sapiens; SW1353 cells, OSM and IL-1β triggered, MMP13 levels 48 hours after triggering; read-out: MMP13 EC50;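 further: secreted MMP13 captured by antibody, activated with APMA and its activity read by fluorescence, inhibition scaled between vehicle-treated triggered wells (0%) and untriggered wells (100%)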
[5] = Microsomal stability, human liver microsomes; type: in vitro ADME; settings: percentage of compound remaining after 60 minutes, 3 μM compound
Method in brief: (§1)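 Percent parent remaining after 60 min was determined by LCMS against a time-zero sample quenched before microsome addition. Incubations ran at 37°C with liver microsomes and a G6PDH-based NADPH-regenerating cofactor mix. Quench was MeOH or ACN (1:1).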

[6] = Microsomal stability, rat liver microsomes; type: in vitro ADME; settings: percentage of compound remaining after 60 minutes, 3 μM compound
Method in brief: as §1

[7] = Caco2 permeability (bi-directional); type: in vitro ADME, human; settings: human, pH 7.4; for Papp A→B at 1 h, 10 µM: Caco-2, apical to basolateral, read-out: Papp (A2B); for efflux ratio at 1 h, 10 µM: Caco-2, ratio of PappB>A/PappA>B
Procedure: Bi-directional Caco-2 assays were performed as described below.
2×10^5 cells/well were seeded in plating medium consisting of DMEM+GlutaMAXI+1% NEAA+10% FBS (FetalClone II)+1% Pen/Strep. The medium was changed every 2-3 days.
50 μM Lucifer Yellow (Sigma) was added to the donor buffer in all wells to assess integrity of the cell layers by monitoring Lucifer Yellow permeation. As Lucifer Yellow (LY) cannot freely permeate lipophilic barriers, a high degree of LY transport indicates poor integrity of the cell layer.
After a 1 hour incubation at 37° C. while shaking at an orbital shaker at 150 rpm, 70 μL aliquots were taken from both apical (A) and basal (B) chambers and added to 100 μL1 50:50 acetonitrile:water solution containing analytical internal standard (0.5 μM carbamazepine) in a 96 well plate.
Concentrations of compound in the samples were measured by high performance liquid-chromatography/mass spectroscopy (LC-MS/MS).
The Efflux ratios, as an indication of active efflux from the apical cell surface, were calculated using the ratio of PappB>A/PappA>B.
The following assay acceptance criteria were used:
Lucifer yellow permeability: ≤100 nm/s

Chain of Recombinant human JAK2 catalytic domain (O60674 808-1132): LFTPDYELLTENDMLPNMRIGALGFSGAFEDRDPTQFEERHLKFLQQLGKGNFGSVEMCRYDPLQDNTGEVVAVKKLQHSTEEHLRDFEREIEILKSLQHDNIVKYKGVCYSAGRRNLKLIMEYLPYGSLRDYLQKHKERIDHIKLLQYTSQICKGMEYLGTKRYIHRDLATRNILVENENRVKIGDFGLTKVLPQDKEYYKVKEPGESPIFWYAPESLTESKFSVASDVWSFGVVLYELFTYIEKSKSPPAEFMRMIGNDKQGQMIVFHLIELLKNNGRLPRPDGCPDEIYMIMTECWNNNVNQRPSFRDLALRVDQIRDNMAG
Chain of Recombinant human JAK1 catalytic domain (P23458 850-1154): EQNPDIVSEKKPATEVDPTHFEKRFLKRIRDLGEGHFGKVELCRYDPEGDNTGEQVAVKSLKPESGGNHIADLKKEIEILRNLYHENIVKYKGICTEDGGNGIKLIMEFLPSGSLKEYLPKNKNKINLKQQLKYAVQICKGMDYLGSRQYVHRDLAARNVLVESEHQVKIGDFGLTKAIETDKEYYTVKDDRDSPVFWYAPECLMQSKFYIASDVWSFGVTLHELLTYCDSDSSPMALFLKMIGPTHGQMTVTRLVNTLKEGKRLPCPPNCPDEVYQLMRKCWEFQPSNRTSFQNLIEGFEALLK
Chain of Recombinant human JAK3 catalytic domain (P52333 781-1124): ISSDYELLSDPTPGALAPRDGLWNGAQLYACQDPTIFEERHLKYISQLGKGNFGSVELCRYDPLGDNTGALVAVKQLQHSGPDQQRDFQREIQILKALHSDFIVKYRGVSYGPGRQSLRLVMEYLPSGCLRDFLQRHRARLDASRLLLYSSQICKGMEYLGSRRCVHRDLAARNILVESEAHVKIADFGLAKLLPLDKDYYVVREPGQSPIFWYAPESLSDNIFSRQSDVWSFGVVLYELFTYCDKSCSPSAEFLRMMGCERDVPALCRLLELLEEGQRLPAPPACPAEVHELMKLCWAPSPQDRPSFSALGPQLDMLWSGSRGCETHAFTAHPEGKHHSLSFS

SMILES | IC50 ([1]; semi-quantitative score) [nM] | IC50 [2] [nM] | IC50 [3] [nM] | EC50 [4] [nM] | EC50 (MMP13 in SW1353 cells) [nM] | Microsomal Stability Human (%) [5] | Microsomal Stability Rat (%) [6] | Papp A→B at 1 h, 10 µM [7] [×10⁻⁶ cm/s] | efflux ratio at 1 h, 10 µM [7] | IC50 [1] [nM]
O=C(NCc1cccc(F)c1)c1ccc(-c2cccc3nc(NC(=O)C4CC4)nn23)cc1 [Compound 29, 4-(2-(cyclopropanecarboxamido)-[1,2,4]triazolo[1,5-a]pyridin-5-yl)-N-(3-fluorobenzyl)benzamide] | < 100 | 101 to 500 | > 1000 | 101 to 500 | > 1000 | *** (*** 51-75) | ** (** 26-50) | 7.78 | 5.2 | 
O=C(Nc1nc2cccc(-c3ccc(NCc4ccccc4)cc3)n2n1)C1CC1 [Compound 72, N-(5-(4-(benzylamino)phenyl)-[1,2,4]triazolo[1,5-a]pyridin-2-yl)cyclopropanecarboxamide] | < 100 | < 100 | 501 to 1000 | > 1000 | 501 to 1000 | * (* 0-25) | * (* 0-25) |  | 1.31 | 
O=C(Nc1nc2cccc(-c3ccc(C(=O)N4CCCN(Cc5ccccc5)CC4)cc3)n2n1)C1CC1 [Compound 75, N-(5-(4-(4-benzyl-1,4-diazepane-1-carbonyl)phenyl)-[1,2,4]triazolo[1,5-a]pyridin-2-yl)cyclopropanecarboxamide] | < 100 | 101 to 500 | > 1000 | > 1000 | 501 to 1000 | * (* 0-25) | * (* 0-25) | 18.2 | 2.5 | 
O=C(Nc1nc2cccc(-c3ccc(NS(=O)(=O)CCc4ccccc4)cc3)n2n1)C1CC1 [Compound 76, N-(5-(4-(2-phenylethylsulfonamido)phenyl)-[1,2,4]triazolo[1,5-a]pyridin-2-yl)cyclopropanecarboxamide] | < 100 | < 100 | 101 to 500 | 501 to 1000 | 1 to 500 | * (* 0-25) | * (* 0-25) | 8.14 | 5.09 | 
O=C(Nc1nc2cccc(-c3ccc(OCc4ccc(C(F)(F)F)nc4)cc3)n2n1)C1CC1 [Compound 78, N-(5-(4-((6-(trifluoromethyl)pyridin-3-yl)methoxy)phenyl)-[1,2,4]triazolo[1,5-a]pyridin-2-yl)cyclopropanecarboxamide] | < 100 | < 100 | 101 to 500 | > 1000 | 501 to 1000 | **** (**** 76-100) | **** (**** 76-100) |  | 1.5 | 
CCCc1ccc(S(=O)(=O)Nc2ccc(-c3cccc4nc(NC(=O)C5CC5)nn34)cc2)cc1 [Compound 85, N-(5-(4-(4-propylphenylsulfonamido)phenyl)-[1,2,4]triazolo[1,5-a]pyridin-2-yl)cyclopropanecarboxamide] | < 100 | 101 to 500 | > 1000 | > 1000 | > 1000 | * (* 0-25) | * (* 0-25) |  |  | 
O=C(Nc1nc2cccc(-c3ccc(NS(=O)(=O)CCc4cccc(F)c4)cc3)n2n1)C1CC1 [Compound 88, N-(5-(4-(2-(3-fluorophenyl)ethylsulfonamido)phenyl)-[1,2,4]triazolo[l,5-a]pyridin-2-yl)cyclopropanecarboxamide] | < 100 | 101 to 500 | > 1000 | > 1000 | > 1000 | * (* 0-25) | * (* 0-25) |  |  | 
CCCCN(CCCN1CCOCC1)C(=O)c1ccc(-c2cccc3nc(NC(=O)C4CC4)nn23)cc1 [Compound 90, N-butyl-4-(2-(cyclopropanecarboxamido)-[1,2,4]triazolo[1,5-a]pyridin-5-yl)-N-(3-morpholinopropyl)benzamide] | < 100 | 501 to 1000 | > 1000 | > 1000 | > 1000 | ** (** 26-50) | ** (** 26-50) |  |  | 
O=C(Nc1nc2cccc(-c3ccc(OCCn4cccn4)cc3)n2n1)C1CC1 [Compound 98] | < 100 | 101 to 500 | > 1000 | > 1000 | > 1000 | ** (** 26-50) | ** (** 26-50) |  |  | 
O=C(NCCCc1ccccc1)c1ccc(-c2cccc3nc(NC(=O)C4CC4)nn23)cc1 [Compound 114, 4-(2-(cyclopropanecarboxamido)-[1,2,4]triazolo[1,5-a]pyridin-5-yl)-N-(3-phenylpropyl)benzamide] | < 100 | 101 to 500 | > 1000 | > 1000 | 501 to 1000 | * (* 0-25) | * (* 0-25) |  |  | 
NC(=O)c1ccc(COc2ccc(-c3cccc4nc(NC(=O)C5CC5)nn34)cc2)cn1 [Compound 192, 5-{4-[2-(Cyclopropanecarbonyl-amino)-[1,2,4]triazolo[1,5-a]pyridin-5-yl]-phenoxymethyl}-pyridine-2-carboxylic Acid Amide] |  |  | 101 to 500 | 101 to 500 | 501 to 1000 | **** (**** 76-100) | **** (**** 76-100) |  | 2 | < 100
O=C(Nc1nc2cccc(-c3ccc(CC(=O)N4CCC(C(F)(F)F)CC4)cc3)n2n1)C1CC1 [Compound 319, Cyclopropanecarboxylic acid (5-{4-[2-oxo-2-(4-trifluoromethyl-piperidin-1-yl)-ethyl]-phenyl}-[1,2,4]triazolo[1,5-a]pyridin-2 yl)-amide] | < 100 |  | 101 to 500 | 501 to 1000 | > 1000 | * (* 0-25) | * (* 0-25) | 11.2 |  | 
